# How the values were obtained:
# Assay in all cases: biochemical
# Set-up in all cases: in vitro kinase selectivity panel, protein and lipid kinases, single concentration, ATP at Km
# Settings in all cases: ATP at Km
# ALK(h) = ALK(h) (Homo sapiens, UniProt Q9UM73)
# Summary of the method: (§1)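 Single-point screen against a protein and lipid kinase panel: inhibitor at 1 μM. ATP concentration for every kinase equivalent to its Km.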
# PKCζ(h) = target: T1, PKCζ(h) (Homo sapiens, UniProt Q05513)
# T1 construct: gene PRKCZ
# Summary of the method: as §1
# ARK5(h) = target: T2, ARK5(h) (Homo sapiens, UniProt O60285)
# T2 construct: gene NUAK1
# T2 sequence (O60285 whole entry): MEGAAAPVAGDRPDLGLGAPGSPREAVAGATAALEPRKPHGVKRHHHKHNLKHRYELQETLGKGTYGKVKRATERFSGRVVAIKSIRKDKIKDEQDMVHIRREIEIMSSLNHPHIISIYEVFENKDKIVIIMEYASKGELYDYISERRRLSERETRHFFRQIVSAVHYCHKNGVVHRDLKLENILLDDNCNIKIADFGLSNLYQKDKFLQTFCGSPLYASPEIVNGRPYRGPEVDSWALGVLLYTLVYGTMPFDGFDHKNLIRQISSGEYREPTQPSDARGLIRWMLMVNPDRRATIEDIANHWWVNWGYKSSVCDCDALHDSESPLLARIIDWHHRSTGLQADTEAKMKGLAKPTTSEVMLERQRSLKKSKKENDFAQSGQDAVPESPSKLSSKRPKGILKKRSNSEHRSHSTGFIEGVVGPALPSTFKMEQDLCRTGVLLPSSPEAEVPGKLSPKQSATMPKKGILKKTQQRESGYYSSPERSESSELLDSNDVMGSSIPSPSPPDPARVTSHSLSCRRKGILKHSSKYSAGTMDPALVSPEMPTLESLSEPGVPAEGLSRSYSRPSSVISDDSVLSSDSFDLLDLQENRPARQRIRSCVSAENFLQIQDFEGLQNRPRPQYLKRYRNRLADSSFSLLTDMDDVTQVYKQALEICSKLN
# Summary of the method: as §1
# Pim-1(h) = target: T3, Pim-1(h) (Homo sapiens, UniProt P11309)
# T3 construct: gene PIM1
# T3 sequence (P11309 whole entry): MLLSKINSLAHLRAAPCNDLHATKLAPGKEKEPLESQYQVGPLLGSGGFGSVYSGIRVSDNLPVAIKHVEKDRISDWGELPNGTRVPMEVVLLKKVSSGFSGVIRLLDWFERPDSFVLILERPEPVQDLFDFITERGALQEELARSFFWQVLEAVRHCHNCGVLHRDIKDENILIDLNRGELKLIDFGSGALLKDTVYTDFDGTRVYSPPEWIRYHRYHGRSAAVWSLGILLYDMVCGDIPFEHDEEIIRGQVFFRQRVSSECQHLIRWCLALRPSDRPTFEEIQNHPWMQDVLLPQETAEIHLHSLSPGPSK
# Summary of the method: as §1
# LKB1(h) = target: T4, LKB1(h) (Homo sapiens, UniProt Q15831)
# T4 construct: gene STK11
# T4 sequence (Q15831 whole entry): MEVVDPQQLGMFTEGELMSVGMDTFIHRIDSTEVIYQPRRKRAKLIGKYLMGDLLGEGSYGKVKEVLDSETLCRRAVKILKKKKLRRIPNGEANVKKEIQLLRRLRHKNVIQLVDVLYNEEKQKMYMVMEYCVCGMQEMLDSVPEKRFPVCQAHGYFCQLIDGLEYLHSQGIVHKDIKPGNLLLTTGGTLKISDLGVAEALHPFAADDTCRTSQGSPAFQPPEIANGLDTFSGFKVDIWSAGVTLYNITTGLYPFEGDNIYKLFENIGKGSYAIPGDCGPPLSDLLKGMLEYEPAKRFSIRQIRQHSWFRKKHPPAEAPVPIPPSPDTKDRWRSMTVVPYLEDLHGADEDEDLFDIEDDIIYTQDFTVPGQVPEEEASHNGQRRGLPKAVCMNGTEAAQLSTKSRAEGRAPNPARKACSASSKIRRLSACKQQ
# T4 sequence (Q7RTN6 whole entry partner): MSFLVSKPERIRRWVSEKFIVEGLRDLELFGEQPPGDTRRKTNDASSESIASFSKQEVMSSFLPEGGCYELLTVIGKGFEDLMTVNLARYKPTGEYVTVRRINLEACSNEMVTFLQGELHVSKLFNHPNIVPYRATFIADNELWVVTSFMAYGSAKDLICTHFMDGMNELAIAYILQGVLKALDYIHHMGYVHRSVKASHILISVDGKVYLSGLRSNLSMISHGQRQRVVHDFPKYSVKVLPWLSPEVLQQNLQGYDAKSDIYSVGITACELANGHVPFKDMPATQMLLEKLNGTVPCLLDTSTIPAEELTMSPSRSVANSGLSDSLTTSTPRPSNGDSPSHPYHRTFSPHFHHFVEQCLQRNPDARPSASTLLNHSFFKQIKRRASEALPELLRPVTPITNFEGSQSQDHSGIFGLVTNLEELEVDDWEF
# T4 sequence (Q9Y376 whole entry partner): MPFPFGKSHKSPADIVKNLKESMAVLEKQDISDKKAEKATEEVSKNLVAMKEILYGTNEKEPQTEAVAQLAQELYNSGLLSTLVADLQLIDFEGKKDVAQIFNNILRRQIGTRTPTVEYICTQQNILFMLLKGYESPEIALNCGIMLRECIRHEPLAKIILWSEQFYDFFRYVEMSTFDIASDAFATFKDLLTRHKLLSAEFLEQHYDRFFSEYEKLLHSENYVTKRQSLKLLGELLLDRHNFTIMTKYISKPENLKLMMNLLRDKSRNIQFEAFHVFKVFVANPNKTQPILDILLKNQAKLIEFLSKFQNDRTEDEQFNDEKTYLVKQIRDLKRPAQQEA
# Summary of the method: as §1
# PKCδ(h) = target: T5, PKCδ(h) (Homo sapiens, UniProt Q05655)
# T5 construct: gene PRKCD
# Summary of the method: as §1
# DYRK2(h) = DYRK2(h) (Homo sapiens, UniProt Q92630)
# DYRK2(h), sequence (Q92630 whole entry): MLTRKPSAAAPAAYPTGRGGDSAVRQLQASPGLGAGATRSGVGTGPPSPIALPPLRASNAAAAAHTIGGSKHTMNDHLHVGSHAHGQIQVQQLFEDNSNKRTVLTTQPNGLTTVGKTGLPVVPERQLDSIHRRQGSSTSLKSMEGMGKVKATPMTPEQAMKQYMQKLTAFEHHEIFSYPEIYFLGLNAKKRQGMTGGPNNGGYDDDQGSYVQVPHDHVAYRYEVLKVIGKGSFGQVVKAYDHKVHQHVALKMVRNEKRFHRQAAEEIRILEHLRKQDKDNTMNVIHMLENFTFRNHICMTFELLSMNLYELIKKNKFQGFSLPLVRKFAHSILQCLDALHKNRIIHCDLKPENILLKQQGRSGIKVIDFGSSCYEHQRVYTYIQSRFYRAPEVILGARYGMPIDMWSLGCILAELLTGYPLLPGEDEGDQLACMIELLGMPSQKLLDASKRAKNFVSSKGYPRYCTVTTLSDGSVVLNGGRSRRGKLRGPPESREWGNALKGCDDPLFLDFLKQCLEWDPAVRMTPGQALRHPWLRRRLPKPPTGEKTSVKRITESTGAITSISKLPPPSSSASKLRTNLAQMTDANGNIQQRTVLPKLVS
# Summary of the method: as §1
# CK1γ2(h) = target: T6, CK1γ2(h) (Homo sapiens, UniProt P78368)
# T6 construct: gene CSNK1G2
# Summary of the method: as §1
# PAK4(h) = PAK4(h) (Homo sapiens, UniProt O96013)
# Summary of the method: as §1
# BRK(h) = target: T7, BRK(h) (Homo sapiens, UniProt Q13882)
# T7 construct: gene PTK6
# Summary of the method: as §1
# ErbB4(h) = ErbB4(h) (Homo sapiens, UniProt Q15303)
# Summary of the method: as §1
# EGFR(L858R)(h) = EGFR(L858R)(h) (Homo sapiens, UniProt P00533, L858R)
# Summary of the method: as §1
# PI4K2A = PI4K2A (Homo sapiens, UniProt Q9BTU6)
# Summary of the method: as §1
# PKCα(h) = target: T8, PKCα(h) (Homo sapiens, UniProt P17252)
# T8 construct: gene PRKCA
# Summary of the method: as §1
# MELK(h) = MELK(h) (Homo sapiens, UniProt Q14680)
# MELK(h), sequence (Q14680 whole entry): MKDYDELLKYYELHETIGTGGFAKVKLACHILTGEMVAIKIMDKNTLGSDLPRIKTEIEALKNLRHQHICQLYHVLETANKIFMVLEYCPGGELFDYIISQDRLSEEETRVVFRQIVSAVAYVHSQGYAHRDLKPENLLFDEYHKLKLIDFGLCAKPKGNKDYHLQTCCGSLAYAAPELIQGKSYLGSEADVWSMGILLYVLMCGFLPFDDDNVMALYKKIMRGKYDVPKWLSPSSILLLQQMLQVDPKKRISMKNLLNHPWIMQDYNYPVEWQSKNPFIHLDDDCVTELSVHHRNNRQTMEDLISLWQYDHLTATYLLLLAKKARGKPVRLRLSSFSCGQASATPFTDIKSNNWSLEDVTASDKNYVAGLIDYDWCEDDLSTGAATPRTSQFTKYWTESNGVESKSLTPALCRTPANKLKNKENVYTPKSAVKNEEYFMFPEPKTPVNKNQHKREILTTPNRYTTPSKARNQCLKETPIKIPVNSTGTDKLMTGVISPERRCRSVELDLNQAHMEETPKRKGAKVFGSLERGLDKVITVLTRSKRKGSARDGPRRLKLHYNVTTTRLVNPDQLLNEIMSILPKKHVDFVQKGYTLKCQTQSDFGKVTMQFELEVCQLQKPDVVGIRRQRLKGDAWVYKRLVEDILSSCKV
# Summary of the method: as §1
# PIK3CB / p85 (h) = target: T9, PIK3CB / p85 (h) (Homo sapiens, UniProt P42338)
# T9 construct: p110beta/p85
# Summary of the method: as §1
# DGKB = DGKB (Homo sapiens, UniProt Q9Y6T7)
# Summary of the method: as §1
# CHKA = CHKA (Homo sapiens, UniProt P35790)
# Summary of the method: as §1
# ALK(h), sequence (Q9UM73 whole entry): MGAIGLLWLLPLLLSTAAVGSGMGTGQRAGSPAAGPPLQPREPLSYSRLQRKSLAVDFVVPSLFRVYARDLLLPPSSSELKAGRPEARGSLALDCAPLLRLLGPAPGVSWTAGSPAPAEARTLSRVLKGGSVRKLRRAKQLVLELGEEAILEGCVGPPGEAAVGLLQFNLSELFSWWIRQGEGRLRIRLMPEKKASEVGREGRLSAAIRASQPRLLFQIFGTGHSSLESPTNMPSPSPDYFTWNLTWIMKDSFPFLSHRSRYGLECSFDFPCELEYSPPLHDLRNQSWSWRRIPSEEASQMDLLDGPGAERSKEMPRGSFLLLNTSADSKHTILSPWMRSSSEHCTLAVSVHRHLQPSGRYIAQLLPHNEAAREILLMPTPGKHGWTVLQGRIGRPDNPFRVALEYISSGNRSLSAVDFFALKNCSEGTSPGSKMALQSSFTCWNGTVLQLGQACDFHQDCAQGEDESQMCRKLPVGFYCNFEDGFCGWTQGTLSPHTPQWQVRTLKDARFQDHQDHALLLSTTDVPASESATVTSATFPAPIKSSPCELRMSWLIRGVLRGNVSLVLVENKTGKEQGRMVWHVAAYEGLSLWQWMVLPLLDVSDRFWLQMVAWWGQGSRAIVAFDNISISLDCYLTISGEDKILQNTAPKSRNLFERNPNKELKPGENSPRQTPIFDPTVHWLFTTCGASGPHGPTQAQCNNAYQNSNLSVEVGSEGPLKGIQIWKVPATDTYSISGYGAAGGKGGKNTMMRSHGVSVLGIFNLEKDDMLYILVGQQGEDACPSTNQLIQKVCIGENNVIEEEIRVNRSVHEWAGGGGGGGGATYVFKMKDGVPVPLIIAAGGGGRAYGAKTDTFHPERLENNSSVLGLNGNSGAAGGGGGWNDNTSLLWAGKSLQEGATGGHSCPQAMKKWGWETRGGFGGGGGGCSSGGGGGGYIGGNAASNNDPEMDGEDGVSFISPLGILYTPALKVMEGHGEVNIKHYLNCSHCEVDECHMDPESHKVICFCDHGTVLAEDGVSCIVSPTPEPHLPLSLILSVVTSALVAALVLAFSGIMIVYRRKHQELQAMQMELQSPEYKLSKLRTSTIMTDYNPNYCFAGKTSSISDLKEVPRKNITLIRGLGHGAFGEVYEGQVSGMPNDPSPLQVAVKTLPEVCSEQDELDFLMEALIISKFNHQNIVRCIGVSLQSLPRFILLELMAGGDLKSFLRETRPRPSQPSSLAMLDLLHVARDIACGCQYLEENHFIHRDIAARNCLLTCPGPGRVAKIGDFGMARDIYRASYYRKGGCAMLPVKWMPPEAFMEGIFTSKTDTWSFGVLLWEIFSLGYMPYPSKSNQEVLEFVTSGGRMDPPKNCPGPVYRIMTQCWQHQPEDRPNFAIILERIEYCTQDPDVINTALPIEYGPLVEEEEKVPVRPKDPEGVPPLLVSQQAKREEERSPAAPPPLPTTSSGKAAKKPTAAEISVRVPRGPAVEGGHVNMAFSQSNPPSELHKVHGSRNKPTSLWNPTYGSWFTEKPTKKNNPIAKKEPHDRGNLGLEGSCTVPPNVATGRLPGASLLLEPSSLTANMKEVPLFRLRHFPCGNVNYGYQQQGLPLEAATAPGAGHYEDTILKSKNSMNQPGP
smiles,measurement,setting,value
CC[C@@H](N)CNc1ccnc(-c2cc(-c3cnn(C)c3)ccc2O)n1 [CRT0066101],inhibition at 1 µM,ALK(h),3%
same,inhibition at 1 µM,PKCζ(h),-8%
same,inhibition at 1 µM,ARK5(h),49%
same,inhibition at 1 µM,Pim-1(h),98%
same,inhibition at 1 µM,LKB1(h),-13%
same,inhibition at 1 µM,PKCδ(h),28%
same,inhibition at 1 µM,DYRK2(h),94%
same,inhibition at 1 µM,CK1γ2(h),0%
same,inhibition at 1 µM,PAK4(h),4%
same,inhibition at 1 µM,BRK(h),17%
same,inhibition at 1 µM,ErbB4(h),3%
same,inhibition at 1 µM,EGFR(L858R)(h),-1%
same,inhibition at 1 µM,PI4K2A,4%
same,inhibition at 1 µM,PKCα(h),4%
same,inhibition at 1 µM,MELK(h),55%
same,inhibition at 1 µM,PIK3CB / p85 (h),0%
same,inhibition at 1 µM,DGKB,-9%
same,inhibition at 1 µM,CHKA,1%
